Laboratory results: PubChem BioAssay AID2252 (Southern Research Specialized Biocontainment Screening …, 2010)
Several values for one entry are separate records, joined by “and”; a condition that tells them apart may be missing. Equal entries are not always repeated.

Test system: THP-1 viability, CellTiter-Glo luminescence, 72 h
Experiment: PubChem AID 2252

SMILES | EC50
CCc1ccc(Nc2n[n+](-c3ccccc3)c(-c3c(Cl)cccc3Cl)s2)cc1 | 3.75 µM
CN1CCN(c2nc(Nc3ccc(F)cc3)nc(Nc3ccc(F)cc3)n2)CC1 | 12.1 µM
Cc1c(CN(C)C)c2c(n1Cc1ccccc1)C(=O)c1ccc(Br)cc1-2 | 21.1 µM
O=C(CN1C2=NCCCN2c2ccccc21)c1ccc([N+](=O)[O-])cc1 | 32.5 µM
O=C(N/N=C/c1ccc([N+](=O)[O-])o1)C(O)c1ccccc1 (centres undefined) | 17.9 µM
CCCCCCCCCCOC(=O)Cn1c(COc2cccc(OC)c2)[n+](C)c2ccccc21 | 2.38 µM
N=c1c2c(n(Cc3ccc(Cl)cc3)c3c1CCC3)CCC2 | 11.3 µM
OCCNCc1cc(Br)ccc1OCc1ccc(Cl)cc1 | 15.9 µM
COc1ccc(OCC(=O)Nc2ccc3c(c2)nc(CCN2CCC(C)CC2)n3C)cc1 | 35.1 µM
O=c1[nH]c(-c2ccccn2)nc(C(F)(F)F)c1Br | 11.5 µM
Cc1ccc(Nc2c3c(nc4ccccc24)CCC3)cc1 | 9.1 µM
O=C(CN1C2=NCCN2c2ccccc21)c1ccco1 | < 0.1 µM
Cc1cccc(C(=O)NNC(=S)NC(=O)c2cccs2)c1 | 14.6 µM
CC(NCc1ccccc1O)C12CC3CC(CC(C3)C1)C2 (centres undefined) | 41.6 µM
Cc1ccc2cc(CN(CCN(C)C)C(=O)Nc3ccc(Cl)cc3)c(=O)[nH]c2c1 | 19.1 µM
CCn1cc(C(=O)O)c(=O)c2cc(F)c(N3CCN(S(=O)(=O)c4ccc(NC(C)=O)cc4)CC3)cc21 | 47.2 µM
O=c1ccc2cc3c([nH]c4ccc(Br)cc43)oc-2c1O | 18.9 µM
Fc1ccc(Nc2c3c(nc4ccccc24)CCC3)cc1 | 6.33 µM
C/C(=N\Nc1ccc2nncn2n1)c1ccccn1 | 6.13 µM
O=C(NCCCN1CCOCC1)c1sc2cc(Cl)ccc2c1Cl | 35.8 µM
CCN1CCN(CCNC(=O)c2ccc(/C=C3/Sc4ccccc4N(Cc4cccc(Cl)c4)C3=O)cc2)CC1 | 8.93 µM
CC(C)CCC(CCNCc1ccccn1)c1ccc(Cl)cc1 (centres undefined) | 16.2 µM

SMILES | EC50
CC(=O)Oc1ccccc1C(=O)Nc1ncc([N+](=O)[O-])s1 | 20.2 µM
O=C(NC(=S)NNC(=O)c1cccs1)c1ccco1 | 16.2 µM
CCc1nn(CCCN2CCN(c3cccc(Cl)c3)CC2)c(=O)n1CCOc1ccccc1 | 42.4 µM
c1ccc2c(c1)CSc1sccc1C2=C1CCNCC1 | 17.7 µM
CCOC(=O)c1c(N)sc(C(=O)Nc2ccc3c(c2)OCO3)c1C | 42.7 µM
COc1cccc(Nc2nc(NCCO)c3ccccc3n2)c1 | 2.26 µM
Oc1cc(Cl)ccc1Oc1ccc(Cl)cc1Cl | 28.6 µM
CC1CCC(C(C)C)C(OC(=O)Cn2c(-c3ccc(Br)cc3)[n+](C)c3ccccc32)C1 (centres undefined) | 2.16 µM
C#CCOCCOCCOCCNc1nc(N2CCN(C(=O)CCCCCCCCCCNC(=O)Cn3cc(CCCCCN)nn3)CC2)nc(N2CCN(C(=O)CCCCCCCCCCNC(=O)[C@@H]([C@H](C)O)n3cc(C)nn3)CC2)n1 | < 0.1 µM
O=C(CSc1ccccn1)Nc1nonc1[N+](=O)[O-] | 6.9 µM
COc1ccc(C2NCCc3c2[nH]c2ccccc32)cc1COc1ccc(F)cc1 (centres undefined) | 6.94 µM
CN1CC(C(=O)c2ccc(Cl)cc2)C(c2ccc(Cl)cc2Cl)C1 (centres undefined) | 27.5 µM
CCN(CC)c1cc(C)c2cc(NC(=O)c3ccccc3F)ccc2n1 | 8.98 µM
Cc1cc(NC(=O)/C=C/C(=O)N(c2ccccc2C)C(C(=O)NC2CCCC2)c2ccc(F)cc2)no1 (centres undefined) | 37.5 µM
C/C(=N\N=C(N)N)c1ccc(Cl)c(Cl)c1 | 13.3 µM
C[C@@H](NC(=O)/C(C#N)=C/c1ccc(O)c(O)c1)c1ccccc1 | 15.2 µM
Cc1cc(C)c2c(N)c3ccccc3nc2n1 | 12.4 µM
COc1ccc(C(=O)NC(=S)NNC(=O)c2cnccn2)cc1 | 2.98 µM
CCOC(=O)c1c(-c2ccc(-c3ccccc3)cc2)csc1NC(=O)CNCCN(C)C | 7.38 µM
CCOC(=O)N1CCN(C(=S)NC(=O)c2ccc(Br)cc2)CC1 | < 0.1 µM
C=C1c2c(Cl)ccc(O)c2C(O)=C2C(=O)[C@]3(O)C(O)=C(C(N)=O)C(=O)[C@@H](N(C)C)[C@@H]3[C@@H](O)C12 (some centres undefined) | 13.4 µM
O=C(N/N=C\c1c[nH]c2ccccc12)c1ccc(O)cc1 | < 0.1 µM

SMILES | EC50
CC(C)[C@@H]1CC[C@@H](C)C[C@H]1OC(=O)C[n+]1cc(-c2ccc(Cl)cc2)n2c1CCCCC2 | 2.19 µM
CCc1c(C)n([O-])c2c([n+]1=O)CCCCC2 | < 0.1 µM
CCCCCCCCCCCCOC(=O)C[N+](C)(C)C | 23.7 µM
O=C(Nc1c2ccccc2nc2ccccc12)C(Cl)(Cl)Cl | 20 µM
CC(=O)c1c(C)nc(-c2cccc([N+](=O)[O-])c2)n1O | < 0.1 µM
CCCCCCCCCCCCCCCC[N+](C)(C)CC | 0.48 µM
COc1cc(Br)cc(/C=N/c2ncn[nH]2)c1O | 49.9 µM
CCCC(=O)c1c(NC)cc(C)oc1=O | 15.9 µM
Nc1nc(=S)c2[nH]cnc2[nH]1 | 0.32 µM
C#CC(=O)N(c1cccc(OC)c1)C(C(=O)NC1CCCC1)c1cccs1 (centres undefined) | 0.9 µM
OCCN1CCN(C2Cc3cc(Cl)ccc3Sc3ccc(Cl)cc32)CC1 (centres undefined) (tested in a mixture with another compound) | 7.79 µM
CC1(C)CC(N2CCN(C(c3ccccc3)c3ccccc3)CC2)=CC(=[N+]2CCCCC2)C1 | 1.05 µM
CCOc1cc(Br)cc(/C=N/NC(=O)c2cccnc2)c1O | 7.58 µM
CCCCCCCCC[n+]1cccc2c3ccccc3ccc21 | 0.82 µM
Cc1ccc(C(=O)N/C(=C\c2ccc(-c3ccc(Cl)cc3)o2)C(=O)NCCCN(C)C)cc1 | 5.31 µM
CCC(/C=C1\Sc2ccc(OC)cc2N1CCO)=C\c1sc2ccc(OC)cc2[n+]1CCO | 8.14 µM
C#CCOCCOCCOCCNc1nc(N2CCN(C(=O)CCCCCCCCCCNC(=O)[C@H](CCCCN)n3cc(CCO)nn3)CC2)nc(N2CCN(C(=O)CCCCCCCCCCNC(=O)[C@H](CCCN=C(N)N)n3cc(C[C@@H](C)CC)nn3)CC2)n1 | 11.3 µM
O=C(NC(=S)NNC(=O)c1ccccc1O)c1ccco1 | 17.2 µM
O=C(c1cccs1)c1no[n+]([O-])c1C(=O)c1cccs1 | 1.89 µM
COC(=O)c1ccc(Cn2c(O)c(N=NC(N)=S)c3ccccc32)o1 | 12.7 µM
Cc1cc(N2CCC(C)CC2)nc(NCc2ccccc2)n1 | 6.23 µM
Fc1ccc(Nc2nnc(C(F)(F)F)s2)cc1Cl | 18.5 µM

SMILES | EC50
O=C(C[n+]1cccc(CNC(=O)c2ccc(OC(F)F)cc2)c1)Nc1ccc(SC(F)F)cc1 | 7.22 µM
C#CCOCCOCCOCCNc1nc(N2CCN(C(=O)CCCCCCCCCCNC(=O)[C@H](CCCCN)n3cc(CCO)nn3)CC2)nc(N2CCN(C(=O)CCCCCCCCCCNC(=O)[C@H](CCCCN)n3cc(C[C@@H](C)CC)nn3)CC2)n1 | 12.9 µM
Cc1cc([N+](=O)[O-])cc(/C=N\NC(=O)C2COc3ccccc3O2)c1O (centres undefined) | 14.3 µM
Clc1ccc(C[n+]2cc(-c3ccc(Cl)cc3)n3c2CCC3)cc1 | 22.7 µM
COc1ccc(C(C(=O)Nc2ccc(C(C)C)cc2)N(Cc2ccco2)C(=O)CC2NC(=O)NC2=O)cc1 (centres undefined) | 31.9 µM
CN(C)CCCN1c2ccccc2Sc2ccccc21 | 32.6 µM
C#CCOCCOCCOCCNc1nc(N2CCN(C(=O)CCCCCCCCCCNC(=O)[C@H]([C@@H](C)CC)n3cc(CCCCN=C(N)N)nn3)CC2)nc(N2CCN(C(=O)CCCCCCCCCCNC(=O)[C@H](CO)n3cc(CCCCCN)nn3)CC2)n1 | 7.5 µM
CCN(CCC(=O)Nc1ccc(Br)c(C)c1)Cc1ccccc1 | 13.8 µM
O=C(N/N=C/c1cc([N+](=O)[O-])ccc1O)C1CC1 | 27.7 µM
O=C(Cc1cccs1)N/N=C\c1ccc([N+](=O)[O-])s1 | 12.5 µM
CCOC(=O)Cn1c(=N)n(CCOc2ccc3ccccc3c2)c2ccccc21 | 17.7 µM
CCOc1ccc(-c2nc(N)ncc2-c2ccccc2)c(O)c1 | 46.8 µM
CN1CCN(Cc2cc(COCc3ccccc3)c3cccnc3c2O)CC1 | 2.82 µM
OCCCNc1c2ccccc2nc2ccccc12 | 2.13 µM
O=[N+]([O-])c1cc(/C=N/Nc2nc3ccccc3[nH]2)c(O)cc1O | 1.7 µM
c1ccc(Sc2cccc3ccccc23)c(CNC2=NCCN2)c1 | 5.87 µM
Cc1ccc(C(=O)NCCN2C3=NC[C@@H](Cc4ccccc4)N3C[C@H]2Cc2ccc(O)cc2)cc1Br | 8.09 µM
C=CCNc1ncnc2c1[nH]c1ccc(C)cc12 | 29.5 µM
O=C(N/N=C/c1sc2ccccc2c1O)c1cccc2ccccc12 | 2.58 µM
CN1CCN(C2=Cc3ccccc3Sc3cc(F)c(F)cc32)CC1 | 14.8 µM
Cc1ccc(OCC(O)Cn2c(=N)n(CCN3CCCCC3)c3ccccc32)cc1 (centres undefined) | 5.35 µM
CCCCCc1ccc(OCCC[n+]2ccccc2)c(CCCCC)c1 | 1.59 µM

SMILES | EC50
CCc1ccc(N2CC(C(=O)N/N=C/c3cc([N+](=O)[O-])ccc3O)CC2=O)cc1 (centres undefined) | 11.3 µM
CCOc1cccc(CNCCc2c(C)[nH]c3ccc(OC(F)(F)F)cc23)c1O | 3.51 µM
O=C(CSc1nc2ccccc2s1)N/N=C/c1cc([N+](=O)[O-])ccc1O | 27.5 µM
O=C(Nc1ccc([N+](=O)[O-])cc1Cl)c1cc(Cl)ccc1O | 1.93 µM
CSc1ccc2c(c1)N(CCC1CCCCN1C)c1ccccc1S2 (centres undefined) | 13 µM
O=C(Nc1ccc(Cl)cc1)Nc1ccc2c(c1)N1CCN=C1S2 | 13.9 µM
CNCC[C@H](Oc1cccc2ccccc12)c1cccs1 | 18.3 µM
CN1CCN(CCCN2c3ccccc3Sc3ccc(C(F)(F)F)cc32)CC1 | 10.3 µM
Cc1c(O)cccc1C(=O)N[C@@H](CSc1ccccc1)[C@H](O)CN1C[C@H]2CCCC[C@H]2C[C@H]1C(=O)NC(C)(C)C | 11.9 µM and 11.6 µM
c1ccc2c(SCc3cn4ccccc4n3)nncc2c1 | < 0.1 µM
CC1CCc2cc(F)cc3c(=O)c(C(=O)O)cn1c23 (centres undefined) | < 0.1 µM
CN1CCN(C2=Cc3ccccc3Sc3cc(F)ccc32)CC1 | 8.09 µM
OCCN1CCN(Cc2cc(Cl)c3cccnc3c2O)CC1 | 7.5 µM
N=c1c2c(n(Cc3cccc(Cl)c3)c3c1CCC3)CCCC2 | 13.5 µM
CCCCn1c(=N)n(CC(=O)c2ccc(Br)s2)c2ccccc21 | 5.43 µM
N=c1n(CCN2CCCCC2)c2ccccc2n1CC(=O)c1ccc(Cl)c(Cl)c1 | 20.4 µM
Nc1cc2c3c(cccc3c1)C(=O)N(CCN1CCCC1)C2=O | 11.3 µM
Oc1c(C(Nc2ccccn2)c2cccnc2)cc(Cl)c2cccnc12 (centres undefined) | 6.1 µM
CNC[C@@H](Cc1ccccc1)NC[C@@H](CC1CCCCC1)NCCCc1ccccc1 | 3.56 µM
CCCOc1ccc(CSC2=NCCN2)cc1[N+](=O)[O-] | 20.8 µM
Cc1ccc(-c2csc(NC(=O)C[n+]3cc(-c4ccccc4)n4c3CCC4)n2)cc1 | 8.47 µM
